Test results reported in ChEMBL document CHEMBL3393021, “Evaluation and synthesis of polar aryl- and heteroaryl spiroazetidine-piperidine acetamides as ghrelin inverse agonists” (ACS Med Chem Lett, 2015).
Converted amounts (≈) assume the structure as drawn.

How the values were obtained:
[1] = Kinetic solubility in 2% sodium phosphate buffer at pH 6.5 after 24 hrs; type: physicochemical; conditions: read-out: Kinetic_solubility
[2] = Toxicity in human THLE cells; type: cell-based
[3] = Volume of distribution at steady state in Wistar Han rat at 1 mg/kg, iv or 5 mg/kg, po; type: ADME, organism-based; conditions: in vivo, read-out: Vdss
[4] = Oral bioavailability in Wistar Han rat at 5 mg/kg; type: ADME, organism-based; conditions: in vivo
[5] = Volume of distribution at steady state in […] at 1 mg/kg, iv or 4 mg/kg, po; type: ADME, organism-based, Canis lupus familiaris; conditions: in vivo, read-out: Vdss
[6] = Oral bioavailability in […] at 4 mg/kg; type: ADME, organism-based, Canis lupus familiaris; conditions: in vivo
[7] = Volume of distribution at steady state in […] at 1 mg/kg, iv or 5 mg/kg, po; type: ADME, organism-based, Macaca fascicularis; conditions: in vivo, read-out: Vdss
[8] = Oral bioavailability in […] at 5 mg/kg; type: ADME, organism-based, Macaca fascicularis; conditions: in vivo
physchem = conditions: buffer, pH 7.4

For `COc1ccc(CC(=O)N2CCC3(CC2)CN([C@@H]2CCc4cc(-c5cc(C)ncn5)ccc42)C3)c(C(N)=O)c1`, the solubility kinetic at 24 h [1] was 185 µg/mL (≈ 352 µM), the INH [2] was > 248 µM and the Vd [3] was 8.1 L/kg. For the same molecule, the bioavailability [4] was 15%, the Vd [5] was 7.3 L/kg and the bioavailability [6] was 67%. For the same molecule, the Vd [7] was 2.2 L/kg, the bioavailability [8] was 32% and the logD (physchem) was 1.4.
`COc1ccc(CC(=O)N2CCC3(CC2)CN([C@@H]2CCc4cc(-c5cc(C)ncn5)ccc42)C3)c(NC(C)=O)c1` gave a logD (physchem) of 1.6.
Molecule `COc1ccc(CCC(=O)N2CCC3(CC2)CN([C@@H]2CCc4cc(-c5cc(C)ncn5)ccc42)C3)c(C(N)=O)c1` has a logD (physchem) of 1.9.
Molecule `COc1ccc(OCC(=O)N2CCC3(CC2)CN([C@@H]2CCc4cc(-c5cc(C)ncn5)ccc42)C3)c(C#N)c1` has a logD (physchem) of 2.3.
In the case of `Cc1cc(-c2ccc3c(c2)CC[C@H]3N2CC3(CCN(C(=O)Cc4nn(C)c5ncccc45)CC3)C2)ncn1`, the logD (physchem) is reported as 2.1.
For `COc1ccc(CC(=O)N2CCC3(CC2)CN([C@@H]2CCc4cc(-c5cc(C)ncn5)ccc42)C3)nc1`, the logD (physchem) was 1.6.
`COc1ccc(CC(=O)N2CCC3(CC2)CN([C@@H]2CCc4cc(-c5cc(C)ncn5)ccc42)C3)c(C#N)c1` gave a logD (physchem) of 2.4.
